Reference: patent US20060019971A1, “Treatment of cardiovascular disease with inhibitors of p38 kinase” (priority 2003, published 2006)

Each molecule was assayed against T1, p38 MAP kinase (Homo sapiens, UniProt Q16539) (assay: p38 MAP kinase phosphorylation assay (similar to Kumar)). Conditions: assay similar to the phosphorylation assay (Kumar).
T1 construct: expressed in transfected cells; kinase immunoprecipitated from lysates
Assay type: biochemical
Method: Alternative assays involving in vitro analysis of potential inhibitors include those where cells (HeLa) transfected with DNA coding for relevant kinases can be activated with substances such as sorbitol, IL-1, TNF, or PMA (phorbol myristate acetate). After immunoprecipitation of cell lysates, equal aliquots of immune complexes of the kinases are pre-incubated for an adequate time with a specific concentration of the potential inhibitor followed by addition of kinase substrate buffer mix containing labeled ATP and GST-ATF2 or MBP. After incubation, kinase reactions are ceased by the addition of SDS loading buffer. Phosphorylated substrate is resolved through SDS-PAGE and visualized and quantitated in a phosphorimager. Both p38 regulation, in terms of phosphorylation, and IC50 values can be determined by quantitation. See, for example Kumar,S., McDonnell, P., Gum, R., Hand, A., Lee, J., and Young, P. (1997) Biochem. Biophys. Res. Commun. 235, 533-538.

T1 sequence (Q16539 whole entry): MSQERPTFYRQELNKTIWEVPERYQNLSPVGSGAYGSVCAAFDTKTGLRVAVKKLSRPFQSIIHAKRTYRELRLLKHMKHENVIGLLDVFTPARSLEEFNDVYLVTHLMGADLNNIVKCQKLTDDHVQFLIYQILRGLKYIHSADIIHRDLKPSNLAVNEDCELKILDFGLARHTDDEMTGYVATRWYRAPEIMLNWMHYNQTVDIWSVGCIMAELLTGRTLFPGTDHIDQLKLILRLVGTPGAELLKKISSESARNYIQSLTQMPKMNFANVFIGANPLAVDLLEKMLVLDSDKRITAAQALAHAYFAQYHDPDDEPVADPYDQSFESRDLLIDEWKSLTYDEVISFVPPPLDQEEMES

Molecule | p38 MAP kinase activity
COc1cc2[nH]cc(C(=O)C(=O)N(C)C)c2cc1C(=O)N1CC(C)N(Cc2ccc(F)cc2)CC1C (centres unmarked) [Compound 154] | exhibit p38 MAP kinase activity
Cc1[nH]c2cc(Cl)c(C(=O)N3CCC(Cc4ccc(F)cc4)CC3)cc2c1C(=O)C(=O)N1CCN(C)CC1 [Compound 169] | exhibit p38 MAP kinase activity
COCn1cc(C(=O)C(=O)N(C)C)c2cc(C(=O)N3C[C@H](C)N(Cc4ccc(F)cc4)C[C@H]3C)c(OC)cc21 [Compound 92] | exhibit p38 MAP kinase activity
COc1cc2[nH]cc(C(=O)C(=O)N3CCOCC3)c2cc1C(=O)N1CCC(Cc2ccc(F)cc2)CC1 [Compound 141] | exhibit p38 MAP kinase activity
COc1cc2c(cc1C(=O)N1CCC(Cc3ccc(F)cc3)CC1)c(C(=O)C(=O)O)cn2C [Compound 2] | exhibit p38 MAP kinase activity
COc1cc2c(cc1C(=O)N1C[C@H](C)N(Cc3ccc(F)cc3)C[C@@H]1C)c(C(=O)C(=O)N(C)C)cn2C [Compound 15] | exhibit p38 MAP kinase activity

Now from value to molecule:

p38 MAP kinase activity | Molecule
exhibit p38 MAP kinase activity | Cn1cc(C(=O)C(=O)N2CCCC2)c2cc(C(=O)N3CCC(Cc4ccc(F)cc4)CC3)c(Cl)cc21 [Compound 84]
exhibit p38 MAP kinase activity | COc1cc2c(cc1C(=O)N1CCC(=Cc3ccc(F)cc3)CC1)c(C(=O)C(=O)N(C)C)cn2C [Compound 67]
exhibit p38 MAP kinase activity | COc1cc2c(cc1C(=O)N1CCC(Cc3ccc(F)cc3)CC1)c(C(=O)C(=O)N1CCN(C)CC1)cn2C [Compound 3]
exhibit p38 MAP kinase activity | C[C@@H]1CN(Cc2ccc(F)cc2)[C@@H](C)CN1C(=O)c1cc2c(C(=O)C(=O)N3CCOCC3)cn(C)c2cc1Cl [Compound 96]

These molecules were tested on ET-1 mRNA in HPBMCs (assay: ET-1 gene expression in HPBMCs, real-time PCR). Conditions: 10 μg/ml CRP added to 10% FCS, HPBMCs, 6 hours.
Assay type: cell-based, human
Method: 5×10^6 HPBMCs were plated in 6-well. After 1 hour medium was removed and cells were treated with vehicle or 1 μM P38 INHIBITOR in RPMI 1640 medium. After 1 hour cells were stimulated with 10% FCS only or 10 μg/ml CRP plus 10% FCS. After 6 hours RNA was extracted from the cells and ET-1 gene expression level was determined by real-time PCR as described in the Experimental section.
Cryopreserved human peripheral blood monocytes (HPBMCs, from Biowitker, Walkersvill, Md.) were thawed and washed twice in RPMI 1640. Cells were plated in tissue culture plates and incubated in 5% CO2 at 37 C. After 1 hr media were removed and cells were treated with various treatments. After 2 to 20 hours conditioned media and/or cell lysates were collected for the analyses of secreted cytokines, protein or mRNA expression. 10 μg/ml of purified human CRP (Calbiochem, San Diego, Calif.) was used in most of the treatments. In some experiments fetal calf serum (FCS from ATCC) was added to a final concentration of 10% together with CRP. In the examples provided herein, including those assessing the effects of p38 antagonism, cells were pre-treated with SD, a p38 small molecule inhibitor (Compound 162 in Table A) for 1 hour prior to CRP treatment as described above. In a parallel series of experiments, the effect of vehicle (DMSO) was tested. For TaqMan analyses of various gene expression cells were lysed in ice-cold RLT lysis buffer (Qiagen, Valencia, Calif.) and the lysates were kept in −80° C. until the analyses. […]
RNA was extracted from the cells using Qiagen RNA extraction kit according to the manufacturer's instruction. The expression of pro-inflammatory genes IL-1β, IL-6, IL-8, TNFα, COX-2, ET-1, TF were assessed by real-time PCR. […]
Real-time RT-PCR was performed in a two-step manner. cDNA synthesis and real-time detection were carried out in a PTC-100™ Thermal Cycler (MJ Research Inc, Waltham, Mass.) and an ABI Prism™ 7700 Sequence Detection System (Applied Biosystems, Foster City, Calif.), respectively. […] Relative quantitation of gene expression was performed using the relative standard curve method. […]

Molecule | augmentation of ET-1 gene expression [fold]
CRP: purified human CRP (Calbiochem), stimulus applied at 10 μg/ml to HPBMCs (protein, UniProt P02741 19-224, looked up) C-reactive protein: QTDMSRKAFVFPKESDTSYVSLKAPLTKPLKAFTVCLHFYTELSSTRGYSIFSYATKRQDNEILIFWSKDIGYSFTVGGSEILFEVPEVTVAPVHICTSWESASGIVEFWVDGKPRVRKSLKKGYTVGAEASIILGQEQDSFGGNFEGSQSLVGDIGNVNMWDFVLSPDEINTIYLGGPFSPNVLNWRALKYEVQGEVFTKPQLWP | 1.7
